Data from patent publication US5521180A, “Morpholine derivative” (Yamanouchi Pharmaceutical Co., Ltd., priority 1993, dated 1996).
Counter-ions that a name gives are not always drawn. Like-named read-outs stand apart in the source and are kept apart here.

Key:
5-HT reuptake sites = target: T1, 5-HT reuptake sites (Rattus norvegicus, UniProt P31652); assay: [3H]-Citalopram binding to 5-HT reuptake sites (5-HT reuptake inhibition, in vitro); details: rat cerebral cortex membrane, about 1.0 nM [3H]-Citalopram, 25° C., 60 minutes
T1 construct: a rat cerebral cortex membrane preparation (about 0.4 mg-protein); from tissue; host or cells: rat cerebral cortex membrane preparation
Protocol: The 5-HT reuptake inhibitory activity was tested by examining the degree of inhibition of a test compound on binding of [^3 H]-Citalopram to 5-HT reuptake sites.
The method of D'amato RJ, et al. described in J. Pharmacol. Exp. Ther., 242, 364 (1987) was used. A buffer solution (0.5 ml) containing about 1.0 nM of [^3 H]-Citalopram, a rat cerebral cortex membrane preparation (about 0.4 mg-protein), and a test compound was allowed to react at 25° C. for 60 minutes. Thereafter, the labeled ligand of bound form was separated form the labeled ligand of free form by suction filtration. The amount of the ligand nonspecifically bound to the 5-HT reuptake sites, which was obtained by adding excess non-labeled Fluoxetine (10 μM), was subtracted from the total amount of the bound ligand to obtain the amount of the ligand specifically bound to the 5-HT reuptake sites. The IC50 (the concentration which reduces the amount of the specifically bound ligand by 50%) for each compound was calculated and converted to a dissociation constant (Ki value). in vivo Test: […]

5-HT reuptake = assay: Enhancement of the action of L-5-hydroxytryptophan in mice (5-HT reuptake inhibition, in vivo); set-up: species or system Male ICR mice; details: Mus musculus, ip, intraperitoneal, 30 minutes before 90 mg/kg i.v. L-5-hydroxytryptophan
Protocol: Enhancement of the action of L-5-hydroxytryptophan which is a 5-HT precursor was tested [Naunyn-Schmiedeberg's Archives of Pharmacology, 311, 185-192 (1980)]. Male ICR mice weighing from 30 to 40 g were used. A test drug was intraperitoneally administered, and 30 minutes later 90 mg/kg of L-5-hydroxytryptophan was intravenously injected. […] The test drug was evaluated from the ED50 in manifestation of each action.

5-HT2 receptors = target: T2, 5-HT2 receptors (Rattus norvegicus, UniProt P14842); assay: [3H]-Ketanserin binding, antagonism for 5-HT2 receptors (in vitro); details: rat cerebral cortex membrane, about 1.0 nM [3H]-Ketanserin, 25° C., 30 minutes; read-out: Antagonism for 5-HT2 Receptor (Ki Value)
T2 construct: a rat cerebral cortex membrane preparation (about 0.2 mg-protein); from tissue; host or cells: rat cerebral cortex membrane preparation
Protocol: The degree of inhibition of a test compound on binding of [^3 H]-Ketanserin was tested. The method of Leysen JE, et al. described in Mol. Pharmacol., 21, 301 (1982) was used. A buffer solution (0.5 ml in total) containing about 1.0 nM of [^3 H]-Ketanserin, a rat cerebral cortex membrane preparation (about 0.2 mg-protein), and a test compound was allowed to react at 25° C. for 30 minutes. Thereafter, the bound labeled ligand was separated by suction filtration. The amount of the ligand nonspecifically bound to the 5-HT2 receptors, which was obtained by adding excess non-labeled Metergoline (10 μM), was subtracted from the total amount of the bound ligand to obtain the amount of the ligand specifically bound to 5-HT2 receptors. The IC50 (the concentration at which the amount of the specifically bound ligand is reduced by 50%) for each compound was calculated and converted to a dissociation constant (Ki value).

[1] = clinical use, Physician's Desk Reference 1990; cited from earlier work
α1 receptors = details: background; causes side effects based thereon; cited from earlier work
[3H]-5-HT uptake = [3H]-5-HT uptake into cerebral cortex synaptosomes; assay type: biochemical, Wistar male rat; details: rat cerebral cortex synaptosomes, 10^-7 M ligand, 37° C.; read-out: IC50 in inhibition of [3H]-5-HT uptake
Protocol: (§1) The degree of inhibition of a test compound on uptake of [^3 H]-5-HT, [^3 H]-noradrenaline and [^3 H]-dopamine into synaptosomes was examined. The method of Harada and Maeno described in Biochem. Pharmacol., 28, 2645 (1979) was used. A Wistar male rat was decapitated and the cerebral cortex and the corpus striatum were taken out. The synaptosome fraction of the cerebral cortex was prepared for 5-HT and noradrenaline uptake and that of the corpus striatum was prepared for dopamine uptake. Each synaptosome fraction was incubated at 37° C. for 3 minutes, and [^3 H]-5-HT, [^3 H]-noradrenaline and [^3 H]-dopamine (10^-7 M) was added to the respective fraction. After further incubation for 2 minutes, the system was cooled with ice (0° C.) to stop the reaction. Then, the reaction system was filtered through a Whatman CF/B glass filter, and the radioactivity trapped on the filter was measured with a liquid scintillation counter. The nonspecific activity was obtained by using a reaction system containing no test drug and having been incubated at 0° C. The test drug was evaluated from the IC50 (the concentration at which the uptake of each radioactive ligand reduced by 50%).

[2] = test system: [3H]-noradrenaline uptake; assay: [3H]-noradrenaline uptake into cerebral cortex synaptosomes; assay type: biochemical, Wistar male rat
Protocol: as §1

[3H]-dopamine uptake = [3H]-dopamine uptake into corpus striatum synaptosomes; assay type: biochemical, Wistar male rat
Protocol: as §1

[3] = selectivity, about 30 or more times

T1 sequence (P31652 whole entry): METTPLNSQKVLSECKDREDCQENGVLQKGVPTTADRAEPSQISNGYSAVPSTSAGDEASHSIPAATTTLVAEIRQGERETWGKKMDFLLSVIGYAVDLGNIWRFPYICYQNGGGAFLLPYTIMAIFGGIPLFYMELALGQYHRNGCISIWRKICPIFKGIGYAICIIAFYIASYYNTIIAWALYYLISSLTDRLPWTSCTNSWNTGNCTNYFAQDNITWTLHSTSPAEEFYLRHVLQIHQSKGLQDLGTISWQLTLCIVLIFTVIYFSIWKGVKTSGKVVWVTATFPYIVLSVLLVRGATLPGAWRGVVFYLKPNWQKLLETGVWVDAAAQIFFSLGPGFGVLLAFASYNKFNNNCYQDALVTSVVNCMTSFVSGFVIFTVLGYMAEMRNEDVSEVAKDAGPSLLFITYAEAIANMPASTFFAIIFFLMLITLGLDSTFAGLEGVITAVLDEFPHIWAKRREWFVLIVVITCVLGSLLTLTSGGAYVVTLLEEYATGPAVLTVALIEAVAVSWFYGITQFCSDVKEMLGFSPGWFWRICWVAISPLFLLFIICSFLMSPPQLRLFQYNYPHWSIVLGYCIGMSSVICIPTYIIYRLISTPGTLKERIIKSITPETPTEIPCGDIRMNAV
T2 sequence (P14842 whole entry): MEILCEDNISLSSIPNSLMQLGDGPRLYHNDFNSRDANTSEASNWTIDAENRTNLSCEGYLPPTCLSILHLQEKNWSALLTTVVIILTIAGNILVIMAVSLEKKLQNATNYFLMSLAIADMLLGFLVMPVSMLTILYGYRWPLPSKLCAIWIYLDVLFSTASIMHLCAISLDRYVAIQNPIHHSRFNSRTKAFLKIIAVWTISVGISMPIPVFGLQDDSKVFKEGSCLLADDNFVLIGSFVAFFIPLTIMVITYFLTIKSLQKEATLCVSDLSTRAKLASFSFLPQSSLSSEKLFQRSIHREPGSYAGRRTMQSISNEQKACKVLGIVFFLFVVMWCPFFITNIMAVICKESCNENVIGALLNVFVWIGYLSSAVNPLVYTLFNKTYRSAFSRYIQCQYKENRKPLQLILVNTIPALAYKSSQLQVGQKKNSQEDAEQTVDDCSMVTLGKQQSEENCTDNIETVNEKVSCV

SMILES: Fc1ccc(OCC2CNCCO2)c2c1CCC2.O=C(O)/C=C/C(=O)O (single isomer, unassigned; (-)) [Example 4, (-)-2-[[(7-fluoro-4-indanyl)oxy]methyl]morpholine fumarate]
- Ki (5-HT reuptake sites): 21 nM
- ED50 (5-HT reuptake; read-out: ED50 in manifestation of head shaking behavior): 7.2 mg/kg
- ED50 (5-HT reuptake; read-out: ED50 in manifestation of hind leg abduction): 14.1 mg/kg
- ED50 (5-HT reuptake; read-out: ED50 in manifestation of tremor): 6.3 mg/kg
- Ki (5-HT2 receptors): 100 nM

SMILES: CNCCC(Oc1ccc(C(F)(F)F)cc1)c1ccccc1 (stereo not drawn) [Fluoxetine]
- side effects during the course of therapy [1]: induces anxiety or insomnia

SMILES: Fc1ccc(OCC2CNCCO2)c2c1CCC2 (single isomer, unassigned; (-)) [Example 5, (-)-2-[[(7-fluoro-4-indanyl)oxy]methyl]morpholine hydrochloride]
- Ki (5-HT reuptake sites): 21 nM
- Ki (5-HT2 receptors): 100 nM

SMILES: O=c1n(CCCN2CCN(c3cccc(Cl)c3)CC2)nc2ccccn12 [Trazodone]
- affinity to α1 receptors (in words) (α1 receptors): exhibits affinity to α1receptors

SMILES: C1=Cc2cccc(OCC3CNCCO3)c2C1 (stereo not drawn) [compound 2, 2-[[(7-Indenyl)oxy]methyl]morpholine, reference compound]
- Ki (5-HT reuptake sites): 22 nM
- Ki (5-HT2 receptors): 4670 nM

SMILES: c1cc2c(c(OCC3CNCCO3)c1)CCC2 (stereo not drawn) [compound 1, 2-[[(4-Indanyl)oxy]methyl]morpholine, reference compound]
- Ki (5-HT reuptake sites): 52 nM
- Ki (5-HT2 receptors): 1030 nM

SMILES: Fc1ccc(OCC2CNCCO2)c2c1CCC2 (stereo not drawn) [Example 1, 2-[[(7-fluoro-4-indanyl)oxy]methyl]morpholine]
- IC50 ([3H]-5-HT uptake): 227 nM
- IC50 ([2]; rat cerebral cortex synaptosomes, 10^-7 M ligand, 37° C., read-out: IC50 in inhibition of [3H]-noradrenaline uptake): 6720 nM
- [3H]-5-HT uptake inhibitory activity relative to [3H]-noradrenaline uptake inhibitory activity [2, 3]: ≥ 30 times
- IC50 ([3H]-dopamine uptake; rat corpus striatum synaptosomes, 10^-7 M ligand, 37° C., read-out: IC50 in inhibition of [3H]-dopamine uptake): ≥ 10000 nM
- [3H]-5-HT uptake inhibitory activity relative to [3H]-dopamine uptake inhibitory activity ([3H]-dopamine uptake; [3]): ≥ 30 times
